Laboratory results as given in publication PMC6199744, “Development of Chemical Proteomics for the Folateome and Analysis of the Kinetoplastid Folateome” (ACS Infectious Diseases, 2018).

Tested on: L. major lysate proteins
Assay: Multitargeted bead mixture chemoproteomics, single concentration competition, proteome-wide
Format: binding
Settings: for fold change: vehicle control = 1

NCCCNc1ccc(C(=O)NC(CCC(=O)O)C(=O)O)cc1 (stereo not drawn) [compound 7]
fold change vs vehicle control (protein LMJF.28.0110 PROTEASOME BETA 3 SUBUNIT, PUTATIVE): 0.99
fold change vs vehicle control (protein LMJF.28.0490 PROPIONYL-COA C[…] CHAIN, PUTATIVE): 1.21
fold change (protein LMJF.28.0710 HYPOTHETICAL PROTEIN, CONSERVED (SNARE associated Golgi protein, putative)): 0.86
fold change vs vehicle control (protein LMJF.28.0930 HYPOTHETICAL PROTEIN, CONSERVED): 0.98
fold change vs vehicle control (protein LMJF.28.0960 40S RIBOSOMAL PROTEIN S14): 0.99
fold change vs vehicle control (protein LMJF.28.1530 ATP DEPENDENT DEAD-BOX HELICASE, PUTATIVE): 0.89
fold change relative to vehicle control (protein LMJF.28.1730, PROTEASOME REGULATORY NON-ATP-ASE SUBUNIT 2, PUTATIVE): 1.27
fold change relative to vehicle control (protein LMJF.28.2310, EUKARYOTIC TRANSLATION INITIATION FACTOR, PUTATIVE): 0.98
fold change vs vehicle control (protein LMJF.28.2430 VACUOLAR ATP SYNTHASE SUBUNIT B, PUTATIVE): 1.03
fold change relative to vehicle control (protein LMJF.28.2770, HEAT-SHOCK PROTEIN HSP70, PUTATIVE): 1.05
fold change (protein LMJF.28.2910 GLUTAMATE DEHYDROGENASE, PUTATIVE): 0.88
fold change vs vehicle control (protein LMJF.29.0120 PROTEASOME REGULATORY NON-ATPASE SUBUNIT, PUTATIVE): 1.1
fold change (protein LMJF.29.0620 ATP-BINDING CASSETTE PROTEIN SUBFAMILY A, MEMBER 10, PUTATIVE): 0.79
fold change vs vehicle control (protein LMJF.29.0760 […] BI[…], PUTATIVE,HEAT SHOCK PROTEIN 90, PUTATIVE): 1.16
fold change relative to vehicle control (protein LMJF.29.0850, HIGH MOBILITY GROUP PROTEIN HOMOLOG TDP-1, PUTATIVE): 0.78
fold change vs vehicle control (protein LMJF.29.0940 HY[…], CONSERVED): 1.11
fold change vs vehicle control (protein LMJF.29.1160 TRYPAREDOXIN): 0.93
fold change vs vehicle control (protein LMJF.29.1240 HY[…], UNKNOWN FUNCTION): 1.04
fold change vs vehicle control (protein LMJF.29.1270 100 kDa heat shock protein (Hsp100)): 1.12
fold change vs vehicle control (protein LMJF.29.1310 CARNITINE/CHOLINE ACETYLTRANSFERASE, PUTATIVE): 1
fold change relative to vehicle control (protein LMJF.29.1760, PARAFLAGELLAR ROD PROTEIN 1D, PUTATIVE): 1.2
fold change vs vehicle control (protein LMJF.29.1780 DIPHTHAMIDE SYNTHESIS PROTEIN, PUTATIVE): 0.94
fold change (protein LMJF.29.2200 GTP-BINDING PROTEIN, PUTATIVE (dynamin-1-like protein)): 0.93
fold change (protein LMJF.29.2310 ENOYL-COA HYDRATASE/ISOMERASE-LIKE PROTEIN): 0.93
fold change vs vehicle control (protein LMJF.29.2360 ASPARTYL AMINOPEPTIDASE, PUTATIVE,METALLO-PEPTIDASE, CLAN MH, FAMILY M20): 1.05
fold change (protein LMJF.29.2860 40S RIBOSOMAL PROTEIN S19-LIKE PROTEIN): 1.02
fold change (protein LMJF.30.0580 HYPOTHETICAL PROTEIN, CONSERVED (AMP-binding enzyme, putative)): 0.85
fold change (protein LMJF.30.0850 SURFACE PROTEIN AMASTIN, PUTATIVE): 0.92
fold change vs vehicle control (protein LMJF.30.1250 PYRIDOXAL KINASE, PUTATIVE): 1.11
fold change vs vehicle control (protein LMJF.30.2580 RETICULON DOMAIN PROTEIN, 22 KDA POTENTIALLY AGGRAVATING PROTEIN (PAPLE22)): 0.95
fold change relative to vehicle control (protein LMJF.30.3090, HY[…], CONSERVED (RNA-binding protein 42, putative)): 1.06
fold change vs vehicle control (protein LMJF.30.3240 GLUTAMYL-TRNA SYNTHETASE, PUTATIVE): 0.99
fold change (protein LMJF.30.3430 HYPOTHETICAL PROTEIN, CONSERVED (protein mkt1, putative)): 1
fold change (protein LMJF.30.3520 S-ADENOSYLMETHIONINE SYNTHETASE): 0.93
fold change (protein LMJF.30.3570 ZINC FINGER-DOMAIN PROTEIN, PUTATIVE): 0.92
fold change relative to vehicle control (protein LMJF.31.0080, HY[…], CONSERVED): 1.21
fold change vs vehicle control (protein LMJF.31.0340 AMINO ACID PERMEASE, PUTATIVE): 1.04
fold change (protein LMJF.31.1130 N-ACYL-L-AMINO ACID AMIDOHYDROLASE, PUTATIVE): 1.03
fold change vs vehicle control (protein LMJF.31.1640 THIOLASE PROTEIN-LIKE PROTEIN): 0.99
fold change relative to vehicle control (protein LMJF.31.2150, PROSTAGLANDIN F2-ALPHA SYNTHASE/D-ARABINOSE DEHYDROGENASE): 2.99
fold change vs vehicle control (protein LMJF.31.2250 3,2-TRANS-ENOYL-COA ISOMERASE, MIT[…], PUTATIVE): 1.97
fold change vs vehicle control (protein LMJF.32.0750 RNA BINDING PROTEIN, PUTATIVE): 0.99
fold change vs vehicle control (protein LMJF.32.1060 DYNEIN, PUTATIVE): 1.08
fold change relative to vehicle control (protein LMJF.32.1820, IRON […], PUTATIVE): 1.09
fold change relative to vehicle control (protein LMJF.32.2320, C-14 STEROL REDUCTASE, PUTATIVE): 1.65
fold change vs vehicle control (protein LMJF.32.3870 MYOSIN XXI): 0.92
fold change relative to vehicle control (protein LMJF.33.0240, THIOL-DEPENDENT REDUCTASE 1): 1.07
fold change (protein LMJF.33.0280 HYPOTHETICAL PROTEIN, CONSERVED): 0.96
fold change relative to vehicle control (protein LMJF.33.0890, HYPOTHETICAL PROTEIN, CONSERVED): 0.93
fold change vs vehicle control (protein LMJF.33.1070 HY[…], UNKNOWN FUNCTION): 1.09
fold change vs vehicle control (protein LMJF.33.1330 CYSTEINE CONJUGATE BETA-LYASE, AMINOTRANSFERASE- LIKE PROTEIN): 0.98
fold change (protein LMJF.33.1590 HYPOTHETICAL PROTEIN, CONSERVED (3-ketoacyl-CoA reductase, putative)): 1
fold change relative to vehicle control (protein LMJF.33.1860, ATP-BINDING CASSETTE PROTEIN SUBFAMILY D, MEMBER 3, PUTATIVE): 1.06
fold change relative to vehicle control (protein LMJF.33.2340, SUCCINYL-COA:3-KETOACID-COENZYME A TRANSFERASE, MIT[…], PUTATIVE): 1.19
fold change relative to vehicle control (protein LMJF.33.2440, HY[…], CONSERVED): 1.14
fold change relative to vehicle control (protein LMJF.33.2540, CARBOXYPEPTIDASE, PUTATIVE,METALLO-PEPTIDASE, CLAN MA(E), FAMILY M32): 1.06
fold change (protein LMJF.33.3150 40S RIBOSOMAL PROTEIN S13, PUTATIVE): 0.96
fold change relative to vehicle control (protein LMJF.34.0140, MALATE DEHYDROGENASE): 6.88
fold change vs vehicle control (protein LMJF.34.0440 RIBOSOMAL PROTEIN S25): 1.13
fold change relative to vehicle control (protein LMJF.34.2580, HY[…], CONSERVED (ALBA-domain protein 3)): 1.04
fold change relative to vehicle control (protein LMJF.34.3250, PUTATIVE PYRUVATE/INDOLE-PYRUVATE CARBOXYLASE, PUTATIVE): 1.08
fold change (protein LMJF.34.4370 20S PROTEASOME BETA 7 SUBUNIT, (PUTATIVE)): 0.97
fold change vs vehicle control (protein LMJF.34.4620 HYPOTHETICAL PROTEIN, CONSERVED): 1.3
fold change (protein LMJF.35.0070 PROHIBITIN, PUTATIVE): 1.03
fold change vs vehicle control (protein LMJF.35.0360 ENOYL-COA HYDRATASE/ISOMERASE FAMILY PROTEIN, CONSERVED): 1.09
fold change (protein LMJF.35.0370 ATP-DEPENDENT DEAD-BOX RNA HELICASE, PUTATIVE): 0.98
